In patent US7932270B2 (Cytokinetics, Inc., priority 2006, dated 2011):

Target: T1, chicken gizzard smooth muscle myosin subfragment-1 chemically crosslinked to cardiac or skeletal actin (Gallus gallus, UniProt P10587)
T1 construct: chicken gizzard smooth muscle myosin subfragment-1; from tissue; host or cells: chicken gizzard
Assay: Smooth muscle myosin ATPase dose response assay (pyruvate kinase/horseradish peroxidase/pyruvate oxidase-coupled, amplex red fluorescence)
Type: biochemical
Conditions: read-out: IC50 Arithmetic Mean
In short: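 Lead-optimization format: ATPase coupled via pyruvate kinase, pyruvate oxidase and peroxidase, pH 7.00 at 22° C, with 0.15 mM ATP, 100 mM KCl, 2 mM MgCl2, 2 mM phosphate and 0.1 mM amplex red (final). Crosslinked S1 titrated empirically for set hydrolysis rate; fluorescence (ex 480/em 615 nm) dose curves fit 4-parameter for IC50.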

T1 sequence (P02607 2-151): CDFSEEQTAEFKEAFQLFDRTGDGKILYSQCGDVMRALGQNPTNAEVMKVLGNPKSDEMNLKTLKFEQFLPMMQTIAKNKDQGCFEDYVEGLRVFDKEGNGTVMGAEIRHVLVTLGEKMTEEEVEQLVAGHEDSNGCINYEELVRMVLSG
T1 sequence (P10587 84-789): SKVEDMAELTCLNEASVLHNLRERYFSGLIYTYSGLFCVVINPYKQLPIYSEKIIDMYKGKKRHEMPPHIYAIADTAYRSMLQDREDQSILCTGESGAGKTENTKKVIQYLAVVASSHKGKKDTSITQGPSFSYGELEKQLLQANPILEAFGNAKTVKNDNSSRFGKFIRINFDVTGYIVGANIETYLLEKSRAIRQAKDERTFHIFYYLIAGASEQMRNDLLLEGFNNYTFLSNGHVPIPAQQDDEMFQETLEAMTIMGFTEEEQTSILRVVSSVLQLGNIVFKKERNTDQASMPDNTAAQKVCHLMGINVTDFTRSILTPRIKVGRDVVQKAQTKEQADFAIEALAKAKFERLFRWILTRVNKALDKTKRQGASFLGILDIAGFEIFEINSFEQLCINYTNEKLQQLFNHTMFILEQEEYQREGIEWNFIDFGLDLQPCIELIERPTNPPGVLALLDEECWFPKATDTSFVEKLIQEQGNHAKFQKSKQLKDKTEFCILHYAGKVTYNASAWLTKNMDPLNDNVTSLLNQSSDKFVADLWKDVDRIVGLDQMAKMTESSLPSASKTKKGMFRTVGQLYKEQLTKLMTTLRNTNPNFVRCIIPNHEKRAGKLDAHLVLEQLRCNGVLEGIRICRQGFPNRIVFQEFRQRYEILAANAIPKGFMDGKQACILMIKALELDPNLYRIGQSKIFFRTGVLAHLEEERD

| SMILES | IC50 [µM] |
| --- | --- |
| CC(C)(C)OC(=O)N1CCOC(CNC(=O)c2ccc(-c3ccccc3)nc2NCCc2ccccn2)C1 (centres unmarked) [tert-butyl 2-[({6-phenyl-2-[(2-(2-pyridyl)ethyl)amino]-3-pyridyl}carbonylamino)methyl]morpholine-4-carboxylate] | 65.1 |
| N#Cc1ccccc1-c1ccc(C(=O)NC[C@H]2CCCN2C(=O)CCCO)c(NCCc2cccc(F)c2)n1 [N-{[(2R)-1-(4-hydroxybutanoyl)pyrrolidin-2-yl]methyl}(6-(2-cyanophenyl)-2-{[2-(3-fluorophenyl)ethyl]amino}(3-pyridyl))carboxamide] | 0.085 |
| O=C(O)c1cccc(CCNc2nc(-c3ccccc3)ccc2C(=O)NCc2cccnc2)c1 [3-[2-({6-phenyl-3-[N-(3-pyridylmethyl)carbamoyl]-2-pyridyl}amino)ethyl]benzoic acid] | 21.9 |
| C[C@@H](CNC(=O)CN)CNC(=O)c1cc(F)c(-c2cnn(C)c2)nc1NCCc1cccc(F)c1 [N-{(2R)-3-[(5-fluoro-2-{[2-(3-fluorophenyl)ethyl]amino}-6-(1-methylpyrazol-4-yl)(3-pyridyl))carbonylamino]-2-methylpropyl}-2-aminoacetamide] | 0.152 |
| CS(=O)(=O)N1CC(=O)N[C@@H](CNC(=O)c2ccc(-c3ccccc3C#N)nc2NCCc2cccc(F)c2)C1 (stereo in doubt) [(6-(2-cyanophenyl)-2-{[2-(3-fluorophenyl)ethyl]amino}(3-pyridyl))-N-{[4-(methylsulfonyl)-6-oxopiperazin-2-yl]methyl}carboxamide] | 2.56 |
| O=C(NCc1cccnc1)c1ccc(-c2ccccc2)nc1NCc1ccccc1 [{6-phenyl-2-[benzylamino](3-pyridyl)}-N-(3-pyridylmethyl)carboxamide] | 2.79 |
| NCCNc1ncccc1CNC(=O)c1ccc(-c2cn[nH]c2)nc1NCCc1cccc(F)c1 [N-({2-[(2-aminoethyl)amino](3-pyridyl)}methyl)(2-{[2-(3-fluorophenyl)ethyl]amino}-6-pyrazol-4-yl(3-pyridyl))carboxamide] | 0.122 |
| CS(=O)(=O)NC(=O)CNC(=O)c1ccc(-c2ccccc2C#N)nc1NCCc1cccc(F)c1 [2-[(6-(2-cyanophenyl)-2-{[2-(3-fluorophenyl)ethyl]amino}(3-pyridyl))carbonylamino]-N-(methylsulfonyl)acetamide] | 24.9 |
| O=C(NCc1cccnc1)c1ccc(-c2cccc(F)c2)nc1NCCc1cccc(F)c1 [(6-(3-fluorophenyl)-2-{[2-(3-fluorophenyl)ethyl]amino}(3-pyridyl))-N-(3-pyridylmethyl)carboxamide] | 0.157 |

Second part, the compound after the results:

| IC50 [µM] | SMILES |
| --- | --- |
| 1.64 | COC(=O)[C@H](CNC(=O)c1ccc(-c2ccccc2C#N)nc1NCCc1cccc(F)c1)NC(C)=O [methyl (2S)-2-(acetylamino)-3-[(6-(2-cyanophenyl)-2-{[2-(3-fluorophenyl)ethyl]amino}(3-pyridyl))carbonylamino]propanoate] |
| 11.8 | N#Cc1ccccc1-c1ccc(C(=O)NCCN2CCC[C@H](NC(=O)OCc3ccccc3)C2=O)c(NCCc2cccc(F)c2)n1 [(6-(2-cyanophenyl)-2-{[2-(3-fluorophenyl)ethyl]amino}(3-pyridyl))-N-(2-{2-oxo-3-[(phenylmethoxy)carbonylamino]piperidyl}ethyl)carboxamide] |
| 20.1 | CN1CCC(CCNc2nc(-c3ccccc3)ccc2C(=O)NCc2cccnc2)CC1 [(2-{[2-(1-methyl(4-piperidyl))ethyl]amino}-6-phenyl(3-pyridyl))-N-(3-pyridylmethyl)carboxamide] |
| 15.7 | CC(=O)N1CCC[C@H]1CNC(=O)c1ccc(-c2ccccc2)nc1NCCc1ccccn1 [N-[((2S)-1-acetylpyrrolidin-2-yl)methyl]{6-phenyl-2-[(2-(2-pyridyl)ethyl)amino](3-pyridyl)}carboxamide] |
| 1.34 | COC(=O)CNC(=O)c1ccc(-c2ccccc2)nc1NCCc1ccccc1 [methyl 2-({6-phenyl-2-[(2-phenylethyl)amino]-3-pyridyl}carbonylamino)acetate] |
